Measured values: publication PMC5218480 (PLoS ONE, 2017)

Tested on: MV-4-11 cells
Assay: Gene expression microarray analysis (Affymetrix PrimeView) and GSEA
Type: cell-based, human
Design: RFU PODN (11730768_x_at) / Fold change /veh PODN (11730768_x_at) / RFU LINC00158 (11744669_a_at) / Fold change /veh LINC00158 (11744669_a_at) / RFU DUSP10 (11751237_a_at) / Fold change /veh DUSP10 (11751237_a_at) / RFU ID3 (11757404_x_at) / Fold change /veh ID3 (11757404_x_at) / RFU PLEKHG5 (11737974_s_at) / Fold change /veh PLEKHG5 (11737974_s_at) / RFU LRRC4B (11730491_at) / Fold change /veh LRRC4B (11730491_at) / RFU GIMAP4 (11747438_a_at) / Fold change /veh GIMAP4 (11747438_a_at) / RFU KRT8 (11758183_x_at) / Fold change /veh KRT8 (11758183_x_at) / RFU CNN1 (11734310_a_at) / Fold change /veh CNN1 (11734310_a_at) / RFU VPS37D (11726825_at) / Fold change /veh VPS37D (11726825_at) / RFU C10orf10 (11716522_x_at) / Fold change /veh C10orf10 (11716522_x_at) / RFU KIR2DL2 /// KIR2DL4 /// KIR2DL5A /// KIR2DL5B /// KIR2DS1 /// KIR2DS2 /// KIR2DS3 /// KIR2DS4 /// KIR3DL3 /// KIR3DL3 /// KIR3DS1 (11738374_at) / Fold change /veh KIR2DL2 /// KIR2DL4 /// KIR2DL5A /// KIR2DL5B /// KIR2DS1 /// KIR2DS2 /// KIR2DS3 /// KIR2DS4 /// KIR3DL3 /// KIR3DL3 /// KIR3DS1 (11738374_at) / RFU C1QL1 (11718748_at) / Fold change /veh C1QL1 (11718748_at) / RFU TMPRSS4 (11747572_a_at) / Fold change /veh TMPRSS4 (11747572_a_at) / RFU HAMP (11756126_x_at) / Fold change /veh HAMP (11756126_x_at) / RFU RNFT2 (11725882_a_at) / Fold change /veh RNFT2 (11725882_a_at) / RFU NR4A2 (11747474_a_at) / Fold change /veh NR4A2 (11747474_a_at) / RFU ABCC12 (11746883_a_at) / Fold change /veh ABCC12 (11746883_a_at) / RFU TMEM136 (11760407_x_at) / Fold change /veh TMEM136 (11760407_x_at) / RFU CLDN22 /// WWC2 (11732394_at) / Fold change /veh CLDN22 /// WWC2 (11732394_at) / RFU HLA-DPB1 (11760878_x_at) / Fold change /veh HLA-DPB1 (11760878_x_at) / RFU SPINT1 (11716480_a_at) / Fold change /veh SPINT1 (11716480_a_at) / RFU GAP43 (11754022_s_at) / Fold change /veh GAP43 (11754022_s_at) / RFU A4GNT (11735810_at) / Fold change /veh A4GNT (11735810_at) / RFU PRB3 (11715151_x_at) / Fold change /veh PRB3 (11715151_x_at) / RFU TUBB4B (11761932_at) / Fold change /veh TUBB4B (11761932_at) / RFU CAPN14 (11732068_a_at) / Fold change /veh CAPN14 (11732068_a_at) / RFU TMCC2 (11721928_a_at) / Fold change /veh TMCC2 (11721928_a_at) / RFU IRGQ (11745062_a_at) / Fold change /veh IRGQ (11745062_a_at) / RFU FAM174B (11720279_a_at) / Fold change /veh FAM174B (11720279_a_at) / RFU TMPRSS4 (11748680_a_at) / Fold change /veh TMPRSS4 (11748680_a_at) / RFU FAM212B (11763350_a_at) / Fold change /veh FAM212B (11763350_a_at) / RFU PLEKHG5 (11743358_a_at) / Fold change /veh PLEKHG5 (11743358_a_at) / RFU ZSCAN30 (11745921_a_at) / Fold change /veh ZSCAN30 (11745921_a_at) / RFU CMKLR1 (11741424_a_at) / Fold change /veh CMKLR1 (11741424_a_at) / RFU LOC101060620 /// MAPK8IP1 (11723275_at) / Fold change /veh LOC101060620 /// MAPK8IP1 (11723275_at) / RFU SPTSSB (11747773_x_at) / Fold change /veh SPTSSB (11747773_x_at) / RFU PRSS12 (11739890_at) / Fold change /veh PRSS12 (11739890_at) / RFU BIN1 (11741810_x_at) / Fold change /veh BIN1 (11741810_x_at) / RFU WNT11 (11732464_a_at) / Fold change /veh WNT11 (11732464_a_at) / RFU C10orf10 (11716521_a_at) / Fold change /veh C10orf10 (11716521_a_at) / RFU C5orf56 (11738089_at) / Fold change /veh C5orf56 (11738089_at) / RFU CYB561 (11721691_x_at) / Fold change /veh CYB561 (11721691_x_at) / RFU ANKRD19P (11752326_a_at) / Fold change /veh ANKRD19P (11752326_a_at) / RFU OR2T12 /// OR2T33 /// OR2T8 (11738714_s_at) / Fold change /veh OR2T12 /// OR2T33 /// OR2T8 (11738714_s_at) / RFU VCAN (11748164_a_at) / Fold change /veh VCAN (11748164_a_at) / RFU JSRP1 (11732532_at) / Fold change /veh JSRP1 (11732532_at) / RFU KRTAP10-11 (11738290_x_at) / Fold change /veh KRTAP10-11 (11738290_x_at) / RFU MYO3A (11730013_a_at) / Fold change /veh MYO3A (11730013_a_at) / RFU EBF3 (11725865_a_at) / Fold change /veh EBF3 (11725865_a_at) / RFU CAMK2N1 (11719241_x_at) / Fold change /veh CAMK2N1 (11719241_x_at) / RFU C5orf56 (11738088_a_at) / Fold change /veh C5orf56 (11738088_a_at) / RFU OLFML3 (11715873_a_at) / Fold change /veh OLFML3 (11715873_a_at) / RFU LOC100653217 /// NTM (11731650_a_at) / Fold change /veh LOC100653217 /// NTM (11731650_a_at) / RFU MAPK11 (11762145_a_at) / Fold change /veh MAPK11 (11762145_a_at) / RFU FIZ1 (11724087_x_at) / Fold change /veh FIZ1 (11724087_x_at) / RFU OASL (11726364_x_at) / Fold change /veh OASL (11726364_x_at) / RFU SOX15 (11748057_x_at) / Fold change /veh SOX15 (11748057_x_at) / RFU CD79A (11719716_a_at) / Fold change /veh CD79A (11719716_a_at) / RFU HIST1H1D (11736915_at) / Fold change /veh HIST1H1D (11736915_at) / RFU CASKIN2 (11723855_a_at) / Fold change /veh CASKIN2 (11723855_a_at) / RFU LOC730098 (11760151_x_at) / Fold change /veh LOC730098 (11760151_x_at) / RFU OR4N2 (11742367_at) / Fold change /veh OR4N2 (11742367_at) / RFU PRRT2 (11749266_a_at) / Fold change /veh PRRT2 (11749266_a_at) / RFU SNX32 (11753110_a_at) / Fold change /veh SNX32 (11753110_a_at) / RFU CDHR5 (11726645_a_at) / Fold change /veh CDHR5 (11726645_a_at) / RFU RCAN1 (11760418_a_at) / Fold change /veh RCAN1 (11760418_a_at) / RFU FAM167A (11723789_a_at) / Fold change /veh FAM167A (11723789_a_at) / RFU FAM26E (11764081_at) / Fold change /veh FAM26E (11764081_at) / RFU ISYNA1 (11749810_s_at) / Fold change /veh ISYNA1 (11749810_s_at) / RFU ACY1 (11761880_at) / Fold change /veh ACY1 (11761880_at) / RFU 11764098_at / Fold change /veh 11764098_at / RFU SAMD14 (11745864_x_at) / Fold change /veh SAMD14 (11745864_x_at) / RFU NPB (11741838_a_at) / Fold change /veh NPB (11741838_a_at) / RFU TMPRSS6 (11731388_a_at) / Fold change /veh TMPRSS6 (11731388_a_at) / RFU KRTAP10-2 (11738614_at) / Fold change /veh KRTAP10-2 (11738614_at) / RFU ARHGAP8 /// PRR5-ARHGAP8 (11727945_x_at) / Fold change /veh ARHGAP8 /// PRR5-ARHGAP8 (11727945_x_at) / RFU KRTAP5-7 /// NADSYN1 (11734609_at) / Fold change /veh KRTAP5-7 /// NADSYN1 (11734609_at) / RFU RASL12 (11751679_a_at) / Fold change /veh RASL12 (11751679_a_at) / RFU CDKN2B (11736163_a_at) / Fold change /veh CDKN2B (11736163_a_at) / RFU PRF1 (11729649_at) / Fold change /veh PRF1 (11729649_at) / RFU, ZNF638 /// ZNF638-IT1 / Fold change vs veh, ZNF638 /// ZNF638-IT1 / RFU, PANK3 / Fold change vs veh, PANK3 / RFU, SH3YL1 / Fold change vs veh, SH3YL1 / RFU, ZEB2 / Fold change vs veh, ZEB2 / RFU, NRIP1 / Fold change vs veh, NRIP1 / RFU, PTTG1IP / Fold change vs veh, PTTG1IP / RFU, CAPN2 / Fold change vs veh, CAPN2 / RFU, MED14 / Fold change vs veh, MED14 / RFU, SNORA58 / Fold change vs veh, SNORA58 / RFU, C1orf63 / Fold change vs veh, C1orf63 / RFU, LRRFIP1 / Fold change vs veh, LRRFIP1 / RFU, NDUFAF7 / Fold change vs veh, NDUFAF7 / RFU, SLC12A2 / Fold change vs veh, SLC12A2 / RFU, IBTK / Fold change vs veh, IBTK / RFU, ESF1 / Fold change vs veh, ESF1 / Fold change vs veh, TMEM50B / RFU, TAOK1 / Fold change vs veh, TAOK1 / RFU, ACBD3 / Fold change vs veh, ACBD3 / RFU, TMA16 / Fold change vs veh, TMA16 / RFU, RWDD3 / Fold change vs veh, RWDD3 / RFU, BCAT1 / Fold change vs veh, BCAT1 / RFU, EDEM3 / Fold change vs veh, EDEM3 / RFU, TMEM33 / Fold change vs veh, TMEM33 / RFU, WDR75 / Fold change vs veh, WDR75 / RFU, AHCTF1 / Fold change vs veh, AHCTF1 / RFU, TFRC / Fold change vs veh, TFRC / RFU, ZDHHC17 / Fold change vs veh, ZDHHC17 / RFU, NOM1 / Fold change vs veh, NOM1 / RFU, ARL8B / Fold change vs veh, ARL8B / RFU, ZBTB11 / Fold change vs veh, ZBTB11 / RFU, TAMM41 / Fold change vs veh, TAMM41 / RFU, KIAA1704 /// LOC100996395 / Fold change vs veh, KIAA1704 /// LOC100996395 / RFU, ING1 / Fold change vs veh, ING1 / RFU, TRMT61B / Fold change vs veh, TRMT61B / RFU, FUBP3 / Fold change vs veh, FUBP3 / RFU, TP53 / Fold change vs veh, TP53 / RFU, TNKS2 / Fold change vs veh, TNKS2 / RFU, ZFP14 / Fold change vs veh, ZFP14 / RFU, ACTR2 / Fold change vs veh, ACTR2 / RFU, PPP3R1 / Fold change vs veh, PPP3R1 / RFU, PIK3R1 / Fold change vs veh, PIK3R1 / RFU, HNRNPA1 / Fold change vs veh, HNRNPA1 / RFU, RNF170 / Fold change vs veh, RNF170 / RFU, ZNF28 / Fold change vs veh, ZNF28 / RFU, RNGTT / Fold change vs veh, RNGTT / RFU, OGT / Fold change vs veh, OGT / RFU, BRD1 / Fold change vs veh, BRD1 / RFU, MARS / Fold change vs veh, MARS / RFU, ZNF655 / Fold change vs veh, ZNF655 / RFU, FAHD1 / Fold change vs veh, FAHD1 / RFU, BDP1 / Fold change vs veh, BDP1 / RFU, LRRCC1 / Fold change vs veh, LRRCC1 / RFU, ARID1A / Fold change vs veh, ARID1A / RFU, ZNF146 / Fold change vs veh, ZNF146 / RFU, ZNF330 / Fold change vs veh, ZNF330 / RFU, GPN3 / Fold change vs veh, GPN3 / RFU, C9orf123 / Fold change vs veh, C9orf123 / RFU, N4BP2L2 / Fold change vs veh, N4BP2L2 / RFU, ARFIP1 / Fold change vs veh, ARFIP1 / RFU, FAM179B / Fold change vs veh, FAM179B / RFU, BCL10 / Fold change vs veh, BCL10 / RFU, UHRF1BP1L / Fold change vs veh, UHRF1BP1L / RFU, BET1 / Fold change vs veh, BET1 / RFU, CNOT2 / Fold change vs veh, CNOT2 / RFU, ZNF268 / Fold change vs veh, ZNF268 / Fold change vs veh, ZNF507 / RFU, DGCR2 / Fold change vs veh, DGCR2 / RFU, WDSUB1 / Fold change vs veh, WDSUB1 / Fold change vs veh, HSP90B1 /// MIR3652 / RFU, ADSS / Fold change vs veh, ADSS / RFU, GK / Fold change vs veh, GK / RFU, ZNF148 / Fold change vs veh, ZNF148 / RFU, TAF9 / Fold change vs veh, TAF9 / RFU, SLC1A5 / Fold change vs veh, SLC1A5 / RFU, SLMO2 / Fold change vs veh, SLMO2 / RFU, ABCC4 / Fold change vs veh, ABCC4 / RFU, LOC101060439 /// RAP1B / Fold change vs veh, LOC101060439 /// RAP1B / RFU, RFX7 / Fold change vs veh, RFX7 / RFU, GTPBP10 / Fold change vs veh, GTPBP10 / RFU, CNEP1R1 / Fold change vs veh, CNEP1R1 / RFU, BIVM-ERCC5 /// ERCC5 / Fold change vs veh, BIVM-ERCC5 /// ERCC5 / RFU, ILF3 / Fold change vs veh, ILF3 / RFU 11762660_at / Fold change /veh 11762660_at / RFU VCAN (11757783_s_at) / Fold change /veh VCAN (11757783_s_at) / RFU DDX43 (11728927_at) / Fold change /veh DDX43 (11728927_at) / RFU KRT8 (11758188_x_at) / Fold change /veh KRT8 (11758188_x_at) / RFU NKD1 (11759106_at) / Fold change /veh NKD1 (11759106_at) / RFU SRD5A1 (11742802_a_at) / Fold change /veh SRD5A1 (11742802_a_at) / RFU TPSAB1 /// TPSB2 (11721975_s_at) / Fold change /veh TPSAB1 /// TPSB2 (11721975_s_at) / RFU GSTM3 (11746129_a_at) / Fold change /veh GSTM3 (11746129_a_at) / RFU IL23R (11737362_x_at) / Fold change /veh IL23R (11737362_x_at) / RFU TMEM51 (11727254_a_at) / Fold change /veh TMEM51 (11727254_a_at) / RFU PIWIL2 (11732686_x_at) / Fold change /veh PIWIL2 (11732686_x_at) / RFU ORM1 (11744905_x_at) / Fold change /veh ORM1 (11744905_x_at) / RFU CCDC152 (11743942_at) / Fold change /veh CCDC152 (11743942_at) / RFU ECM1 (11717891_a_at) / Fold change /veh ECM1 (11717891_a_at) / RFU IL23R (11748794_a_at) / Fold change /veh IL23R (11748794_a_at) / RFU TNFAIP8L3 (11732012_x_at) / Fold change /veh TNFAIP8L3 (11732012_x_at) / RFU MBOAT4 (11741988_at) / Fold change /veh MBOAT4 (11741988_at) / RFU 11764193_at / Fold change /veh 11764193_at / RFU TMEM53 (11763286_at) / Fold change /veh TMEM53 (11763286_at) / RFU MAGEB2 (11727129_at) / Fold change /veh MAGEB2 (11727129_at) / RFU TMEM200A (11744735_a_at) / Fold change /veh TMEM200A (11744735_a_at) / RFU CCDC152 (11751479_a_at) / Fold change /veh CCDC152 (11751479_a_at) / RFU FAM211A (11726209_a_at) / Fold change /veh FAM211A (11726209_a_at) / RFU RGS16 (11746705_a_at) / Fold change /veh RGS16 (11746705_a_at) / RFU VCAN (11755009_s_at) / Fold change /veh VCAN (11755009_s_at) / RFU RHOB (11743442_s_at) / Fold change /veh RHOB (11743442_s_at) / RFU RGS16 (11720943_a_at) / Fold change /veh RGS16 (11720943_a_at) / RFU RGS16 (11720944_at) / Fold change /veh RGS16 (11720944_at) / RFU, VPS4B / Fold change vs veh, VPS4B / RFU, CREB1 / Fold change vs veh, CREB1 / RFU, DNAJC13 / Fold change vs veh, DNAJC13 / RFU, GNAQ / Fold change vs veh, GNAQ / RFU, CDK5R1 / Fold change vs veh, CDK5R1 / RFU, ZRANB3 / Fold change vs veh, ZRANB3 / RFU, CUL4A / Fold change vs veh, CUL4A / RFU, CCNY / Fold change vs veh, CCNY / RFU, UFL1 / Fold change vs veh, UFL1 / RFU, COG3 / Fold change vs veh, COG3 / RFU, DIAPH2 / Fold change vs veh, DIAPH2 / RFU, SKA2 / Fold change vs veh, SKA2 / RFU, AFF3 / Fold change vs veh, AFF3 / RFU, LMF1 / Fold change vs veh, LMF1 / RFU, IPO11 / Fold change vs veh, IPO11 / RFU, DFFB / Fold change vs veh, DFFB / RFU, FOXP1 / Fold change vs veh, FOXP1 / RFU, CARD8 / Fold change vs veh, CARD8 / RFU, STRN3 / Fold change vs veh, STRN3 / RFU, ADK / Fold change vs veh, ADK / RFU, RASSF2 / Fold change vs veh, RASSF2 / RFU, WIPF1 / Fold change vs veh, WIPF1 / RFU, LARP1B / Fold change vs veh, LARP1B / RFU, RASA1 / Fold change vs veh, RASA1 / RFU, RB1 / Fold change vs veh, RB1 / RFU, PPFIA1 / Fold change vs veh, PPFIA1 / RFU, MAT2A / Fold change vs veh, MAT2A / RFU, CCT5 / Fold change vs veh, CCT5 / RFU, WDR92 / Fold change vs veh, WDR92 / RFU, CUX1 / Fold change vs veh, CUX1 / RFU, TTC7A / Fold change vs veh, TTC7A / RFU, TMEM135 / Fold change vs veh, TMEM135 / RFU, DEPTOR / Fold change vs veh, DEPTOR / RFU, CPM / Fold change vs veh, CPM / RFU, DNAJB6 / Fold change vs veh, DNAJB6 / RFU, CACNA2D3 / Fold change vs veh, CACNA2D3 / RFU, DTX4 / Fold change vs veh, DTX4 / RFU, TFCP2 / Fold change vs veh, TFCP2 / RFU, GMCL1 /// GMCL1P1 / Fold change vs veh, GMCL1 /// GMCL1P1 / RFU, AEBP2 / Fold change vs veh, AEBP2 / RFU, SNHG1 /// SNORD22 /// SNORD25 /// SNORD26 /// SNORD27 /// SNORD28 /// SNORD29 /// SNORD31 / Fold change vs veh, SNHG1 /// SNORD22 /// SNORD25 /// SNORD26 /// SNORD27 /// SNORD28 /// SNORD29 /// SNORD31 / Fold change (Aza/veh), C12orf56 (ProbeSet 11735607_a_at) / Fold change (ACY-1035/veh), C12orf56 (ProbeSet 11735607_a_at) / Fold change (Aza/veh), FGFR1OP (ProbeSet 11751329_s_at) / Fold change (ACY-1035/veh), FGFR1OP (ProbeSet 11751329_s_at) / Fold change (Aza/veh), VPS36 (ProbeSet 11739960_a_at) / Fold change (ACY-1035/veh), VPS36 (ProbeSet 11739960_a_at) / RFU SYPL1 (11715823_x_at) / Fold change /veh SYPL1 (11715823_x_at) / RFU IGFBP7 (11715501_s_at) / Fold change /veh IGFBP7 (11715501_s_at) / RFU REEP3 (11722064_at) / Fold change /veh REEP3 (11722064_at) / RFU IGLL1 (11728026_x_at) / Fold change /veh IGLL1 (11728026_x_at): dose or concentration left out as unconfirmed
Details: ProbeSet 11743510_at; LIST D

For Nc1ncn([C@@H]2O[C@H](CO)[C@@H](O)[C@H]2O)c(=O)n1 [azacitidine], the “Fold change vs veh, UFL1” value was 0.83.
